From ChEMBL document CHEMBL4190261, “Triazole derivatives and their anti-tubercular activity” (Eur J Med Chem, 2017) come the findings set out here.

Converted amounts (≈) assume the structure as drawn.

The test system of data set [1] is Mycobacterium tuberculosis. Description: Antimycobacterial activity against Mycobacterium tuberculosis H37Rv. The data set is classed as functional.
The subject of data set [2] is Mycobacterium tuberculosis. Nature of the data set: Potency index, ratio of ethambutol MIC to compound MIC for Mycobacterium tuberculosis H37Rv. It counts as functional.
The target of another data set is T1, Pantothenate synthetase (Mycobacterium tuberculosis, UniProt P9WIL5).
T1 sequence (P9WIL5 whole entry): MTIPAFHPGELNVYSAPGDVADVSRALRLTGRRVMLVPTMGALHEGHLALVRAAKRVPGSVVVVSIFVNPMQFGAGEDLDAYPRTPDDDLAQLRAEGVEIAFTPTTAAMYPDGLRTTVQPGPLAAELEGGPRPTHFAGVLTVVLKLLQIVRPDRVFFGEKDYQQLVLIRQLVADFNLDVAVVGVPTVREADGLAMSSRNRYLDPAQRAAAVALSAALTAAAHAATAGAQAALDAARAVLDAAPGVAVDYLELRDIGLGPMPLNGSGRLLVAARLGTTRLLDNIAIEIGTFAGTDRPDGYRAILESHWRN
Nature of the data set: Inhibition of Mycobacterium tuberculosis pantothenate synthetase.

Data set [3] relates to Mycobacterium tuberculosis. Nature of the data set: Antimycobacterial activity against Mycobacterium tuberculosis H37Rv ATCC 27294 by agar dilution method. The data set is classed as functional. In general terms: Agar dilution tests growth on a series of plates holding different concentrations.
The test system of data set [4] is Mycobacterium tuberculosis. Nature of the data set: Potency index, ratio of linezolid MIC to compound MIC for Mycobacterium tuberculosis H37Rv. The data set is classed as functional.
Data set [5] deals with Mycobacterium tuberculosis. Description: Potency index, ratio of ethambutol MIC to compound MIC for Mycobacterium tuberculosis H37Rv ATCC 27294. It counts as functional.
Data set [6] deals with Mycobacterium tuberculosis. Nature of the data set: Antimycobacterial activity against Mycobacterium tuberculosis H37Rv ATCC 27294 after 5 days by MABA. It counts as functional. Conditions: H37Rv ATCC 27294, 120 h. For orientation: The colour change of resazurin is a common sign of viable cells or microbes.
Data set [7] is described as follows: Selectivity index, ratio of cytotoxic concentration for HEK293 cells to MIC for Mycobacterium tuberculosis H37Rv ATCC 27294. The data set is classed as toxicity. Conditions: human, read-out: Selectivity Index.
The target in data set [8] is T2, Phosphotyrosine protein phosphatase (Mycobacterium tuberculosis, UniProt A0A045ISB3).
T2 sequence (A0A045ISB3 whole entry): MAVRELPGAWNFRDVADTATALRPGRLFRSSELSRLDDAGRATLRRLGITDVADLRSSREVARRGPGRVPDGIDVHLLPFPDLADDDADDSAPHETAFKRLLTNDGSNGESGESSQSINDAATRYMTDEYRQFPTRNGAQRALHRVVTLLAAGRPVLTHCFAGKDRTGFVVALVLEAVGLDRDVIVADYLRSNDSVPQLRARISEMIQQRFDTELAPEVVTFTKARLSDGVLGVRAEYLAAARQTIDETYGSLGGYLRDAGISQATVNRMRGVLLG
Description: Inhibition of Mycobacterium tuberculosis PTPB.

The test system of data set [9] is Mycobacterium tuberculosis. Nature of the data set: Antimycobacterial activity against Mycobacterium tuberculosis MC2 6230. It counts as functional.
Data set [10] deals with Mycobacterium tuberculosis. Nature of the data set: Antimycobacterial activity against Mycobacterium tuberculosis MC2 7000. The data set is classed as functional.
Setting [11] is: Mycobacterium tuberculosis, H37Rv.

For `CCCCCc1ccc(-c2cn(CC(O)COc3ccc4c(c3)OC3(CCCCC3)CC4=O)nn2)cc1` (stereo not given), it took 0.78 µg/mL (≈ 1.55 µM) to inhibit growth in data set [1] (setting [11]) (MIC). Moreover, the Ratio in data set [2] was found to be 2.
As for `COc1ccc(-c2nnc(-c3cccnc3)n2Nc2nc3c(Cl)cccc3s2)cc1`, the MIC99 in [1] (setting [11]) is 25 µg/mL (≈ 57.5 µM).
With `COc1ccc(-n2cc(Cn3nc(-c4ccccc4)c4c3CCN(C(=O)Nc3ccccc3)C4)nn2)cc1`, the IC50 on Pantothenate synthetase was determined as 1010 nM. The same molecule came in with an MIC in data set [3] of 24.7 µM (≈ 12.5 µg/mL).
`O=C1CC2CN(c3ccc(N4C[C@H](Cn5ccnn5)OC4=O)cc3F)CC2C1` (stereo not given in full) had an MIC in [1] (setting [11]) of 0.5 µg/mL (≈ 1.3 µM). Moreover, the Ratio in data set [4] is on record as 2.
For `O=C(N/N=C1/C(=O)N(Cc2ccc(Cl)cc2)c2ccccc21)c1ccc(-n2cc(-c3ccccc3)nn2)cc1O`, the Ratio in data set [5] worked out at 8. This molecule displayed an MIC in data set [6] of 0.39 µg/mL (≈ 0.71 µM). In addition, the selectivity ratio in data set [7] was more than 128.
For the molecule `O=C(CCCCCCn1cc(COc2ccc(-c3cc(C(=O)O)no3)c(C3CCCCC3)c2)nn1)Nc1ccc2cc3ccccc3cc2c1`, the IC50 in data set [8] is 170 nM.
As for `c1cncc(-c2nn3c(COc4cnccn4)nnc3s2)c1`, in [1] (setting [11]), the MIC came to 0.4 µg/mL (≈ 1.28 µM).
Molecule `Clc1cccc(Cl)c1-c1nnc2sc(-c3cccnc3)nn12` showed an MIC in data set [1] (setting [11]) of 25 µg/mL (≈ 71.8 µM).
Consider `CC1=C(C(=O)O)N2C(=O)[C@@H](NC(=O)[C@H](N)c3ccccc3)[C@H]2SC1` [CEPHALEXIN ANHYDROUS], for which the MIC in [9] and in data set [10] was 0.12 to 144 µM in each case.
Take `CC[C@@H](CO)NCCN[C@@H](CC)CO` [ETHAMBUTOL]: the values for the MIC in data set [1] (setting [11]) and in data set [6] were 1.56 µg/mL (≈ 7.64 µM) and 3.13 µg/mL (≈ 15.3 µM), respectively.
For the molecule `CCc1cc(C(N)=S)ccn1` [ETHIONAMIDE], the MIC in [9] and in [10] was 0.12 to 144 µM in each case.
With `NNC(=O)c1ccncc1` [ISONIAZID], the MIC is 0.075 µg/mL (≈ 0.547 µM) in data set [1] (setting [11]), 0.12 to 144 µM in data set [9], 0.06 µg/mL (≈ 0.438 µM) in data set [6] and 0.12 to 144 µM in [10].
In turn, `CC(=O)NC[C@H]1CN(c2ccc(N3CCOCC3)c(F)c2)C(=O)O1` [LINEZOLID] showed an MIC in data set [1] (setting [11]) of 1 µg/mL (≈ 2.96 µM).
With `NC(=O)c1cnccn1` [PYRAZINAMIDE], the MIC in data set [1] (setting [11]) was 100 µg/mL (≈ 812 µM).
`CO[C@H]1/C=C/O[C@@]2(C)Oc3c(C)c(O)c4c(O)c(c(/C=N/N5CCN(C)CC5)c(O)c4c3C2=O)NC(=O)/C(C)=C\C=C\[C@H](C)[C@H](O)[C@@H](C)[C@@H](O)[C@@H](C)[C@H](OC(C)=O)[C@@H]1C` [RIFAMPIN] displayed an MIC98 in data set [1] of 40 µg/mL (≈ 48.6 µM). Further, the MIC in [1] (setting [11]) is 0.043 to 0.5 µg/mL (≈ 0.0523 to 0.608 µM); in data set [9] it was 0.12 to 144 µM; in [6] it was 0.39 µg/mL (≈ 0.474 µM); in data set [10], 0.12 to 144 µM.

The term MIC denotes the smallest concentration in the dilution series that meets the test's criterion for growth inhibition. The MIC99 is the lowest concentration that inhibits either 99% of growth or 99% of the strains tested, depending on the study. A lower MIC99 goes with higher susceptibility. As usually defined, the IC50 is the concentration at which inhibition is half-maximal. Low values mean inhibition by little substance, high ones a need for much substance.
